Measured values as given in patent publication US8263610B2, “Substituted imidazolyl-5,6-dihydrobenzo[N]isoquinoline compounds” (ArQule, Inc., priority 2008, dated 2012).

Tests used:
Assay in all cases: MTS assay, inhibition of cell growth
Type in all cases: cell-based
Kato III cells = settings: Homo sapiens, compound at 10 μM, 72 hours
Procedure: (§1) MDA-MB-231, DLD-1, Kato III NCI-H1299, PACA-2 cells, were maintained at 37° C., 5% CO2 in DMEM media supplemented with 10% fetal bovine serum, penicillin/streptomycin and fungizone (Invitrogen). Cells were seeded into 96-well tissue culture plates at 3000 per well and cultured at 37° C. for 18 hours. Test compounds were dissolved and diluted to 300× in DMSO then further diluted 1:40 in DMEM before addition to cells (1:7.5 dilution). Cells were incubated with test compounds for 72 hours followed by incubation with tetrazolium compound (3-(4,5-dimethylthiazol-2-yl)-5-(3-carboxymethoxyphenyl)-2-(4-sulfophenyl)-2H-tetrazolium, inner salt; MTS) and the electron coupling reagent, phenazine methosulfate (PMS) for 4 hours. […] The ability of compounds to inhibit cell growth in this assay is correlated with the reduction of dehydrogenase enzyme activity found in metabolically active cells. The measurement of the absorbance of the formazan was assessed using an ENVISION™ (Perkin Elmer) microplate reader at 492 nm.

PACA-2 cells = settings: compound at 10 μM, 72 hours
Procedure: as §1

MDA-MB-231 cells = settings: Homo sapiens, compound at 10 μM, 72 hours
Procedure: as §1

NCI-H1299 cells = settings: Homo sapiens, compound at 10 μM, 72 hours
Procedure: as §1

DLD-1 cells = settings: Homo sapiens, compound at 10 μM, 72 hours
Procedure: as §1

Row | SMILES | inhibition at 10 µM (Kato III cells) [%] | inhibition at 10 µM (PACA-2 cells) [%] | inhibition at 10 µM (MDA-MB-231 cells) [%] | inhibition at 10 µM (NCI-H1299 cells) [%] | inhibition at 10 µM (DLD-1 cells) [%]
1 | O=S(=O)(Cc1noc2ccccc12)NC1CCc2c(cnc3[nH]ncc23)C1 (stereo not drawn) [1-(1,2-benzisoxazol-3-yl)-N-(6,7,8,9-tetrahydro-3H-pyrazolo[3,4-c]isoquinolin-7-yl)methanesulfonamide] | 75 to 100 | 75 to 100 | 25 to 49 | 25 to 49 | 50 to 74
2 | O=C(Nc1cccc2ccccc12)NC1CCc2c(cnc3[nH]ncc23)C1 (stereo not drawn) [1-(1-naphthyl)-3-(6,7,8,9-tetrahydro-3H-pyrazolo[3,4-c]isoquinolin-7-yl)urea] | 75 to 100 | 25 to 49 | 50 to 74 | 25 to 49 | 75 to 100
3 | O=C(NCCc1ccccc1)NC1CCc2c(cnc3[nH]ncc23)C1 (stereo not drawn) [1-(2-phenylethyl)-3-(6,7,8,9-tetrahydro-3H-pyrazolo[3,4-c]isoquinolin-7-yl)urea] | 75 to 100 | 75 to 100 | 75 to 100 | 75 to 100 | 75 to 100
4 | O=C(Nc1cccc(Cl)c1F)NC1CCc2c(cnc3[nH]ncc23)C1 (stereo not drawn) [1-(3-chloro-2-fluorophenyl)-3-(6,7,8,9-tetrahydro-3H-pyrazolo[3,4-c]isoquinolin-7-yl)urea] | 75 to 100 | 75 to 100 | 75 to 100 | 75 to 100 | 75 to 100
5 | Cc1ccc(-c2n[nH]c3ncc4c(c23)CCN(C(=O)Nc2ccccc2)C4)o1 [1-(5-methylfuran-2-yl)-N-phenyl-3,6,8,9-tetrahydro-7H-pyrazolo[3,4-c][2,7]naphthyridine-7-carboxamide] | 75 to 100 | 75 to 100 | 75 to 100 | 75 to 100 | 75 to 100
6 | O=C(C(c1ccccc1)N1CCNCC1)N1CCc2c(cnc3[nH]nc(Br)c23)C1 (stereo not drawn) [1-bromo-7-[phenyl(piperperazin-1-yl)acetyl]-6,7,8,9-tetrahydro-3H-pyrazolo[3,4-c][2,7]naphthyridine] | 75 to 100 | 75 to 100 | 75 to 100 | 75 to 100 | 75 to 100
7 | O=C(Nc1cccc(Oc2ccccc2)c1)N1CCc2c(cnc3[nH]nc(Br)c23)C1 [1-bromo-N-(3-phenoxyphenyl)-3,6,8,9-tetrahydro-7H-pyrazolo[3,4-c][2,7]naphthyridine-7-carboxamide] | 75 to 100 | 50 to 74 | 25 to 49 | 50 to 74 | 75 to 100
8 | Cc1ccc(C)c(S(=O)(=O)NC2CCc3c(cnc4[nH]ncc34)C2)c1 (stereo not drawn) [2,5-dimethyl-N-(6,7,8,9-tetrahydro-3H-pyrazolo[3,4-c]isoquinolin-7-yl)benzenesulfonamide] | 75 to 100 | 75 to 100 | 75 to 100 | 75 to 100 | 75 to 100
9 | COc1ccc(Cn2ncc3c4c(cnc32)CCc2[nH]c(=O)ccc2-4)cc1 [3-(4-methoxybenzyl)-3,6,7,8-tetrahydro-9H-pyrazolo[4,3-a][3,7]phenanthrolin-9-one] | 75 to 100 | 75 to 100 | 75 to 100 | 75 to 100 | 75 to 100
10 | CNc1ncc2c(n1)CCc1cnc3c(cnn3Cc3ccc(OC)cc3)c1-2 [3-(4-methoxybenzyl)-N-methyl-6,7-dihydro-3H-pyrazolo[4′,3′:5,6]pyrido[4,3-f]quinazolin-9-amine] | 75 to 100 | 75 to 100 | 75 to 100 | < 24 | 75 to 100
11 | Nc1nc(N2CCc3c(cnc4[nH]ncc34)C2)c2cn[nH]c2n1 [4-(3,6,8,9-tetrahydro-7H-pyrazolo[3,4-c][2,7]naphthyridin-7-yl)-1H-pyrazolo[3,4-d]pyrimidin-6-amine] | 75 to 100 | 75 to 100 | 50 to 74 | 25 to 49 | 75 to 100
12 | c1nc2[nH]ncc2c2c1CNCC2 [6,7,8,9-tetrahydro-3H-pyrazolo[3,4-c][2,7]naphthyridine] | 25 to 49 | 75 to 100 | 75 to 100 | 25 to 49 | 75 to 100
13 | c1cc2c(s1)CCc1cnc3[nH]ncc3c1-2 [6,7-dihydro-3H-pyrazolo[3,4-c]thieno[3,2-f]isoquinoline] | 75 to 100 | 75 to 100 | 75 to 100 | 75 to 100 | 75 to 100
14 | Nc1nc(N)nc(N2CCc3c(cnc4[nH]ncc34)C2)n1 [6-(3,6,8,9-tetrahydro-7H-pyrazolo[3,4-c][2,7]naphthyridin-7-yl)-1,3,5-triazine-2,4-diamine] | 75 to 100 | 75 to 100 | 75 to 100 | 75 to 100 | 75 to 100
15 | Nc1nc(N2CCc3c(cnc4[nH]ncc34)C2)c2nc[nH]c2n1 [6-(3,6,8,9-tetrahydro-7H-pyrazolo[3,4-c][2,7]naphthyridin-7-yl)-9H-purin-2-amine] | 75 to 100 | 75 to 100 | 75 to 100 | 75 to 100 | 75 to 100
16 | Cc1cc(NC2CCc3c(cnc4[nH]ncc34)C2)nc(N)n1 (stereo not drawn) [6-methyl-N~4~-(6,7,8,9-tetrahydro-3H-pyrazolo[3,4-c]isoquinolin-7-yl)pyrimidine-2,4-diamine] | 75 to 100 | 75 to 100 | 75 to 100 | 25 to 49 | 75 to 100
17 | Clc1ccccc1C1Cc2cnc3[nH]nc(-c4cnn(C5CCNCC5)c4)c3c2-c2ccccc21 (stereo not drawn) [7-(2-chlorophenyl)-1-(1-piperidin-4-yl-1H-pyrazol-4-yl)-6,7-dihydro-3H-benzo[f]pyrazolo[3,4-c]isoquinoline] | 75 to 100 | 75 to 100 | 75 to 100 | 75 to 100 | 75 to 100
18 | O=S(=O)(c1cccs1)N1CCc2c(cnc3[nH]ncc23)C1 [7-(2-thienylsulfonyl)-6,7,8,9-tetrahydro-3H-pyrazolo[3,4-c][2,7]naphthyridine] | 75 to 100 | 75 to 100 | 75 to 100 | 75 to 100 | 75 to 100
19 | Clc1ccc(C2Cc3cnc4[nH]ncc4c3-c3ccccc32)c(Cl)c1 (stereo not drawn) [drawing 557, 7-(2,4-dichlorophenyl)-6,7-dihydro-3H-benzo[f]pyrazolo[3,4-c]isoquinoline] | 50 to 74 | < 24 |  | 25 to 49 | 50 to 74
20 | Cc1cc(C)c2c(c1)-c1c(cnc3[nH]ncc13)CC2 [drawing 561, 8,10-dimethyl-6,7-dihydro-3H-benzo[f]pyrazolo[3,4-c]isoquinoline] | 25 to 49 | < 24 | 25 to 49 |  | 75 to 100
21 | O=C(Nc1ccccc1)C1CCc2c(cnc3[nH]ncc23)C1 (stereo not drawn) [drawing 584, N-phenyl-6,7,8,9-tetrahydro-3H-pyrazolo[3,4-c]isoquinoline-7-carboxamide] | 75 to 100 | < 24 | < 24 |  | 50 to 74
